Measurements taken from ChEMBL document CHEMBL1201862, “PubChem BioAssay data set” (2004).
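Grown in 96-well plates, cells were treated for 48 hours with each compound at five concentrations. Insufficient inhibition: endpoint recorded as highest concentration tested. The concentration for 50% growth inhibition is given as GI50.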 The source made the active and inactive calls. Cut-off read from the data, not from the text of the source: active = GI50 up to about 1.1 µM and inactive = higher.

How the values were obtained:
Assay in all cases: DTP human tumour cell line panel, 48 h
SW-620 = system: SW-620
NCI-H460 = system: NCI-H460
SN12C = system: SN12C
NCI-H23 = system: NCI-H23
HCC 2998 = system: HCC 2998
ACHN = system: ACHN
RPMI-8226 = system: RPMI-8226
LXFL 529 = system: LXFL 529
SF-295 = system: SF-295
HCT-116 = system: HCT-116
NCI-H226 = system: NCI-H226
COLO 205 = system: COLO 205
OVCAR-3 = system: OVCAR-3
TK-10 = system: TK-10
EKVX = system: EKVX
SK-MEL-5 = system: SK-MEL-5
IGROV-1 = system: IGROV-1
MDA-MB-231 = system: MDA-MB-231
NCI-H522 = system: NCI-H522
MCF7 = system: MCF7

Measured: GI50

Clc1ccc(CNc2nc3ccccc3nc2-c2cccs2)c(Cl)c1
inactive: SW-620 > 100 µM | NCI-H460 > 100 µM | SN12C > 100 µM | NCI-H23 68.5 µM | HCC 2998 43.5 µM | ACHN 75.2 µM | RPMI-8226 56.1 µM | LXFL 529 > 100 µM | SF-295 > 100 µM | HCT-116 49 µM | NCI-H226 > 100 µM | COLO 205 50 µM | OVCAR-3 > 100 µM | TK-10 > 100 µM | EKVX > 100 µM

C/C(COc1ccccc1)=N\NC(N)=S
inactive: SW-620 > 100 µM | SK-MEL-5 91.4 µM | NCI-H460 > 10 µM | SN12C > 100 µM | NCI-H23 > 100 µM | HCC 2998 > 100 µM | ACHN > 100 µM | RPMI-8226 > 100 µM | LXFL 529 44.5 µM | IGROV-1 > 100 µM | SF-295 > 100 µM | HCT-116 > 100 µM | NCI-H226 > 100 µM | COLO 205 > 100 µM | OVCAR-3 > 100 µM | TK-10 > 100 µM | EKVX > 100 µM

Cc1ccc(NC(=O)CCC(=O)C2CC(=O)CCC2=O)cc1C (stereo not given)
inactive: SW-620 > 100 µM | SK-MEL-5 > 100 µM | NCI-H460 > 100 µM | SN12C > 100 µM | NCI-H23 > 100 µM | HCC 2998 > 100 µM | ACHN > 100 µM | LXFL 529 > 100 µM | IGROV-1 > 100 µM | SF-295 > 100 µM | HCT-116 > 100 µM | NCI-H226 > 100 µM | COLO 205 > 100 µM | OVCAR-3 > 100 µM | TK-10 > 100 µM | EKVX > 100 µM

COc1cc([C@@H]2OC(=O)C3C2C(=O)O[C@H]3c2ccc(O)c(OC)c2)ccc1O (stereo not given in full)
inactive: SW-620 > 100 µM | SK-MEL-5 > 100 µM | NCI-H460 > 100 µM | SN12C > 100 µM | NCI-H23 > 100 µM | HCC 2998 > 100 µM | ACHN > 100 µM | RPMI-8226 > 100 µM | LXFL 529 > 100 µM | IGROV-1 > 100 µM | SF-295 > 100 µM | HCT-116 > 100 µM | NCI-H226 > 100 µM | COLO 205 > 100 µM | OVCAR-3 > 100 µM | TK-10 > 100 µM

CC(=O)OCc1cn(S(=O)(=O)c2ccc(C)cc2)cn1
inactive: SW-620 43 µM | MDA-MB-231 > 100 µM | NCI-H522 64 µM | SK-MEL-5 46.9 µM | NCI-H460 30.1 µM | SN12C > 100 µM | NCI-H23 > 100 µM | HCC 2998 > 100 µM | ACHN > 100 µM | RPMI-8226 > 100 µM | IGROV-1 > 100 µM | SF-295 > 100 µM | HCT-116 24 µM | NCI-H226 > 100 µM | COLO 205 73.6 µM | OVCAR-3 24.2 µM | MCF7 25.2 µM | TK-10 > 100 µM | EKVX > 100 µM

O=C1C[C@H](CCC(=O)OCc2ccccc2)NC(=O)C[C@H](CCC(=O)OCc2ccccc2)NC(=O)C[C@H](CCC(=O)OCc2ccccc2)N1
inactive: SW-620 > 100 µM | MDA-MB-231 14.2 µM | NCI-H522 > 100 µM | SK-MEL-5 > 100 µM | NCI-H460 > 100 µM | SN12C > 100 µM | NCI-H23 52.8 µM | HCC 2998 > 100 µM | ACHN 17.1 µM | RPMI-8226 > 100 µM | IGROV-1 50.2 µM | SF-295 8.81 µM | HCT-116 26.2 µM | NCI-H226 > 100 µM | COLO 205 > 100 µM | OVCAR-3 97.1 µM | MCF7 > 100 µM | TK-10 6.24 µM | EKVX > 100 µM

Nc1ccc(Oc2ccc(C34CC5CC(C3)CC(c3ccc(Oc6ccc(N)cc6)cc3)(C5)C4)cc2)cc1
inactive: SW-620 > 25.5 µM | MDA-MB-231 11.1 µM | NCI-H522 11.9 µM | SK-MEL-5 12.6 µM | NCI-H460 10.7 µM | SN12C 12.5 µM | NCI-H23 7.8 µM | HCC 2998 4.9 µM | ACHN 19.5 µM | RPMI-8226 4.14 µM | IGROV-1 5.38 µM | SF-295 10.3 µM | HCT-116 7.55 µM | NCI-H226 26.5 µM | COLO 205 14.5 µM | OVCAR-3 7.66 µM | MCF7 4.81 µM | TK-10 10.3 µM | EKVX 25.4 µM

CN(C)CCNc1ncnc2[nH]c(-c3ccc4ccccc4c3)nc12
inactive: SW-620 > 100 µM | MDA-MB-231 > 100 µM | NCI-H522 > 100 µM | SK-MEL-5 > 100 µM | NCI-H460 > 100 µM | SN12C > 100 µM | NCI-H23 > 100 µM | HCC 2998 > 100 µM | ACHN > 100 µM | RPMI-8226 > 100 µM | IGROV-1 > 100 µM | SF-295 > 100 µM | HCT-116 > 100 µM | NCI-H226 > 100 µM | COLO 205 > 100 µM | OVCAR-3 > 100 µM | MCF7 > 100 µM | TK-10 > 100 µM | EKVX > 100 µM
